How the values were obtained:
ZR-75-1 Tam2 [1] = experiment: relative IC50 (midpoint of fitted logistic curve, plateau may be below 50% inhibition; CellTiter-Glo viability); higher = less potent; conditions: 4-OH-tamoxifen in medium 1 µM; 72 h
How it was run: (§1)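 Breast cancer cell lines and their resistant derivatives were seeded into 384-well plates containing library drugs at five concentrations across a 10 000-fold range, with resistant lines kept in medium with 1 μM of the selecting drug. After 72 h at 37 °C, CellTiter-Glo viability was read on a PHERAstar and normalised to vehicle-only and positive controls. Logistic dose–response fits in the Breeze pipeline gave drug sensitivity score, relative IC50 (curve midpoint) and top-dose inhibition.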

MCF-7 [2] = experiment: as above; conditions: 72 h
How it was run: as §1

T-47D [3] = experiment: as above; conditions: 72 h
How it was run: as §1

BT-474 Tam1 [4] = experiment: as above; conditions: 4-OH-tamoxifen in medium 1 µM; 72 h
How it was run: as §1

MCF-7 Tam1 [5] = experiment: as above; conditions: 4-OH-tamoxifen in medium 1 µM; 72 h
How it was run: as §1

BT-474 Tam2 [6] = experiment: as above; conditions: 4-OH-tamoxifen in medium 1 µM; 72 h
How it was run: as §1

ZR-75-1 [7] = experiment: as above; conditions: 72 h
How it was run: as §1

T-47D Tam1 [8] = experiment: as above; conditions: 4-OH-tamoxifen in medium 1 µM; 72 h
How it was run: as §1

BT-474 [9] = experiment: as above; conditions: 72 h
How it was run: as §1

T-47D Tam2 [10] = experiment: as above; conditions: 4-OH-tamoxifen in medium 1 µM; 72 h
How it was run: as §1

ZR-75-1 Tam1 [11] = experiment: as above; conditions: 4-OH-tamoxifen in medium 1 µM; 72 h
How it was run: as §1

ZR-75-1 Tam2 [12] = experiment: drug sensitivity score (DSS) (DSS (dimensionless)); higher = more sensitive; extreme values may be limits of the assay; conditions: 4-OH-tamoxifen in medium 1 µM; 72 h
How it was run: as §1

MCF-7 [13] = experiment: as above; conditions: 72 h
How it was run: as §1

T-47D [14] = experiment: as above; conditions: 72 h
How it was run: as §1

BT-474 Tam1 [15] = experiment: as above; conditions: 4-OH-tamoxifen in medium 1 µM; 72 h
How it was run: as §1

MCF-7 Tam1 [16] = experiment: as above; conditions: 4-OH-tamoxifen in medium 1 µM; 72 h
How it was run: as §1

BT-474 Tam2 [17] = experiment: as above; conditions: 4-OH-tamoxifen in medium 1 µM; 72 h
How it was run: as §1

ZR-75-1 [18] = experiment: as above; conditions: 72 h
How it was run: as §1

T-47D Tam1 [19] = experiment: as above; conditions: 4-OH-tamoxifen in medium 1 µM; 72 h
How it was run: as §1

BT-474 [20] = experiment: as above; conditions: 72 h
How it was run: as §1

T-47D Tam2 [21] = experiment: as above; conditions: 4-OH-tamoxifen in medium 1 µM; 72 h
How it was run: as §1

ZR-75-1 Tam1 [22] = experiment: as above; conditions: 4-OH-tamoxifen in medium 1 µM; 72 h
How it was run: as §1

Row | Structure (SMILES) | relative IC50 (ZR-75-1 Tam2 [1]) [µM] | relative IC50 (MCF-7 [2]; 4-OH-tamoxifen in medium 0 µM) [µM] | relative IC50 (MCF-7 [2]; 4-OH-tamoxifen in medium 1 µM) [µM] | relative IC50 (T-47D [3]; 4-OH-tamoxifen in medium 0 µM) [µM] | relative IC50 (T-47D [3]; 4-OH-tamoxifen in medium 1 µM) [µM] | relative IC50 (BT-474 Tam1 [4]) [µM] | relative IC50 (MCF-7 Tam1 [5]) [µM] | relative IC50 (BT-474 Tam2 [6]) [µM] | relative IC50 (ZR-75-1 [7]; 4-OH-tamoxifen in medium 0 µM) [µM] | relative IC50 (ZR-75-1 [7]; 4-OH-tamoxifen in medium 1 µM) [µM] | relative IC50 (T-47D Tam1 [8]) [µM] | relative IC50 (BT-474 [9]; 4-OH-tamoxifen in medium 0 µM) [µM] | relative IC50 (BT-474 [9]; 4-OH-tamoxifen in medium 1 µM) [µM] | relative IC50 (T-47D Tam2 [10]) [µM] | relative IC50 (ZR-75-1 Tam1 [11]) [µM] | drug sensitivity score (ZR-75-1 Tam2 [12]) | drug sensitivity score (MCF-7 [13]; 4-OH-tamoxifen in medium 0 µM) | drug sensitivity score (MCF-7 [13]; 4-OH-tamoxifen in medium 1 µM) | drug sensitivity score (T-47D [14]; 4-OH-tamoxifen in medium 0 µM) | drug sensitivity score (T-47D [14]; 4-OH-tamoxifen in medium 1 µM) | drug sensitivity score (BT-474 Tam1 [15]) | drug sensitivity score (MCF-7 Tam1 [16]) | drug sensitivity score (BT-474 Tam2 [17]) | drug sensitivity score (ZR-75-1 [18]; 4-OH-tamoxifen in medium 0 µM) | drug sensitivity score (ZR-75-1 [18]; 4-OH-tamoxifen in medium 1 µM) | drug sensitivity score (T-47D Tam1 [19]) | drug sensitivity score (BT-474 [20]; 4-OH-tamoxifen in medium 0 µM) | drug sensitivity score (BT-474 [20]; 4-OH-tamoxifen in medium 1 µM) | drug sensitivity score (T-47D Tam2 [21]) | drug sensitivity score (ZR-75-1 Tam1 [22])
1 | CC(C)(C#N)c1cc(Cn2cncn2)cc(C(C)(C)C#N)c1 [Anastrozole] | > 10 | > 10 | > 10 | > 10 | > 10 | > 10 | > 10 | > 10 | > 10 | > 10 | > 10 | > 10 | > 10 | > 10 | > 10 | 0 | 0 | 0 | 0 | 0 | 0 | 0 | 0 | 0 | 0 | 0 | 0 | 0 | 0 | 0
2 | O=C(O)C(=O)O.[NH-][C@@H]1CCCC[C@H]1[NH-].[Pt+2] [Oxaliplatin] | > 10 | > 10 | > 10 | > 10 | > 10 | > 10 | > 10 | > 10 | > 10 | > 10 | > 10 | > 10 | > 10 | > 10 | > 10 | 0 | 0 | 0 | 0 | 0 | 0 | 0 | 0 | 0 | 0 | 0 | 0 | 0 | 0 | 0
3 | Oc1ncc(N(CCCl)CCCl)c(O)n1 [Uracil mustard] | > 10 | > 10 | – | > 10 | > 10 | > 10 | > 10 | > 10 | > 10 | > 10 | > 10 | > 10 | > 10 | > 10 | > 10 | 0 | 0 | 0.208 | 0 | 0 | 0 | 0 | 0 | 0 | 0 | 0 | 0 | 0 | 0 | 0
4 | CC[C@@]1(O)C(=O)OCc2c1cc1n(c2=O)Cc2cc3ccccc3nc2-1 [Camptothecin] | 0.0598 | 0.0326 | 0.649 | 0.0442 | – | > 5 | 1.35 | > 5 | 0.0384 | 0.0956 | 0.0326 | > 5 | > 5 | 0.302 | 0.0497 | 13.3 | 23 | 8.74 | 15.6 | 3.21 | 0 | 3 | 0 | 13.9 | 7.82 | 15.6 | 0 | 0 | 4.93 | 12.4
5 | NCC(=O)CCC(=O)O [Aminolevulinic acid] | > 10 | > 10 | – | > 10 | > 10 | > 10 | > 10 | > 10 | > 10 | > 10 | > 10 | > 10 | > 10 | > 10 | > 10 | 0 | 0 | 0.809 | 0 | 0 | 0 | 0 | 0 | 0 | 0 | 0 | 0 | 0 | 0 | 0
6 | Cc1ccc(C(=O)N(CCCN)[C@@H](c2oc3cc(Cl)ccc3c(=O)c2Cc2ccccc2)C(C)C)cc1 | > 0.1 | > 0.1 | – | > 0.1 | > 0.1 | > 0.1 | > 0.1 | > 0.1 | > 0.1 | > 0.1 | > 0.1 | > 0.1 | > 0.1 | > 0.1 | > 0.1 | 0 | 0 | 0.514 | 0 | 0 | 0 | 0 | 0 | 0 | 0 | 0 | 0 | 0 | 0 | 0
7 | Cc1cccc(-c2nn3c(c2-c2ccnc4ccc(C(N)=O)cc24)CCC3)n1 | > 1 | > 1 | – | > 1 | > 1 | > 1 | > 1 | > 1 | > 1 | > 1 | > 1 | > 1 | > 1 | > 1 | > 1 | 0 | 0 | 0.246 | 0 | 0 | 0 | 0 | 0 | 0 | 0 | 0 | 0 | 0 | 0 | 0
8 | Nc1ncn([C@H]2C[C@H](O)[C@@H](CO)O2)c(=O)n1 [Decitabine (Dacogen)] | > 10 | – | > 10 | > 10 | > 10 | > 10 | > 10 | > 10 | > 10 | > 10 | > 10 | > 10 | > 10 | > 10 | > 10 | 0 | 1.25 | 0 | 0 | 0 | 0 | 0 | 0 | 0 | 0 | 0 | 0 | 0 | 0 | 0

From the supplement of paper PMC4932681
